The source made the active and inactive calls. No rule for the calls is given here.

These results are taken from PubChem BioAssay AID504765 (Sanford-Burnham Center for Chemical Genomics, 2011).

The assay has as its target glucose-6-phosphate dehydrogenase-6-phosphogluconolactonase (Plasmodium falciparum 3D7). The experiment in a line: concentration-dependent PfGluPho enzyme inhibition – biochemical, fluorescence intensity, dose response (AID 504765). The settings on record: Recombinant PfG6PD enzyme, fluorescence intensity (NADPH).
For orientation: IC50 means the point on the concentration scale where inhibition reaches its midpoint. Regarding `Cc1no[n+]([O-])c1COc1cccc(/C=N/Nc2nncn2N)c1`, the IC50 is 6.7 µM.

Turning to `C[C@]12CC[C@@H]3c4cc(O)c(O)cc4CC[C@H]3[C@@H]1CC[C@@H]2O`, the IC50 result was “inactive”. As to `CC1(OC(=O)C2CCCC2)C(=O)C=C2C=C(c3ccsc3)N(CCc3c[nH]c4ccccc34)C=C2C1=O` (stereo unspecified), the IC50 was 4.97 µM. `COc1ccc(OCc2nnc3n2N=C(c2ccccc2)C(CC(=O)O)S3)cc1` (stereo unspecified): the IC50 result was “inactive”. With `O=S(=O)(Nc1cc(Sc2ncn[nH]2)c(O)c2ccccc12)c1ccccc1` the figure was 0.741 µM; with `COc1cc(CN2CCN(CCCc3ccccc3)C(CCO)C2)cc(OC)c1O` (stereo unspecified), 7.68 µM. With `O=C1C=CC(=O)N1CCCCCCCCCCN1C(=O)C=CC1=O` the figure was 13.5 µM; with `N#Cc1ccc(N=c2ssnc2Cl)cc1`, 13.8 µM; with `NC1CCc2cc(O)c(O)cc2C1` (stereo unspecified), “inactive”. To `Brc1cc2[nH]cnc2c2ccccc12` belongs 17.6 µM; to `O=C1C=C(NCCc2cc(Br)c(O)c(Br)c2)C(=O)c2ncccc21`, 1.35 µM.

`O=C(Nc1ccc([N+](=O)[O-])cc1Cl)c1cc(Cl)ccc1O`: the 50% inhibitory concentration (IC50) is 13.7 µM. With `O=C(CCc1ccc(O)c(O)c1)N/N=C/c1cc2c(cc1[N+](=O)[O-])OCO2` the figure was 14 µM; with `[O-]/[N+](=C\c1ccco1)c1ccc(Cl)cc1`, 1.39 µM. With `COc1cc(/C=C2\CC/C(=C\c3cc(OC)c(O)c(OC)c3)C2=O)cc(OC)c1O`, the IC50 is 17.1 µM. With `Cc1cccc(-n2c(=S)[nH]c3sc4c(c3c2=O)CCc2ccccc2-4)c1`, the IC50 result was “inactive”. As for `O=C(Cn1sc2ccccc2c1=O)NC12CC3CC(CC(C3)C1)C2`, the IC50 was 1.79 µM. Turning to `O=C(Nc1ccc(N2CCOCC2)c(Cl)c1)c1ccc(Cl)cc1`, the 50% inhibitory concentration (IC50) is 4.87 µM. For `NNC(=O)CN1C(c2ccccc2Br)=Nc2ccc(Br)cc2C1c1ccccc1` (stereo unspecified), the IC50 was 3.38 µM. `CN1CCc2cccc3c2[C@@H]1Cc1ccc(O)c(O)c1-3`: the IC50 was 8.36 µM.

For `Cc1ccc(C(=O)/C=C/C(=O)c2ccc(C)cc2)cc1`, the half-inhibitory concentration (IC50) is 7.28 µM.

For the compound `Clc1ccc2nc(-c3ccc(Br)s3)cn2c1`, the IC50 is 8.89 µM.

`CC(=O)Nc1ccc2c(c1)Cc1cc(N3C(=O)C=CC3=O)ccc1-2`: the IC50 is 19.3 µM.

Turning to `c1ccc(OCc2nnc3n2N=C(c2ccccc2)CS3)cc1`, the IC50 was 17.1 µM. To `Cc1nnc(N/N=C\c2ccc(-c3cccc(C(=O)O)c3)o2)n1N` belongs 4.75 µM; to `Nc1ccc(S(=O)(=O)c2cc(O)c3ccccc3c2O)cc1`, 5.79 µM. With `O=C(O)c1cccc(N2C(=O)C=CC2=O)c1` the figure was 15.5 µM; with `Cc1ccc(-c2c(C(=O)N/N=C/c3ccsc3)nnn2-c2nonc2N)cc1`, “inactive”. With `COc1ccc(C(=O)c2c(C(F)(F)F)oc3c2C(=O)c2ccccc2C3=O)cc1OC` the entry was “inactive”; with `Cc1ccc(/C=C/C(=O)N2CCN(S(=O)(=O)c3ccc(C)c(C)c3)CC2)o1`, “inactive”; with `CCCn1cc(S(=O)(=O)CC(=O)Nc2ccc(OC)cc2OC)c2ccccc21`, 7.87 µM. Regarding `CC(C)Sc1nnc(NC(=O)c2ccc3c(c2)OCO3)s1`, the IC50 is 4.21 µM. Regarding `CCOc1ccccc1CNc1ccc(O)cc1`, the IC50 was 19.2 µM. With `CC(SCC(=O)Nc1ccccc1)c1nc2ccccc2c(=O)[nH]1` (stereo unspecified) the figure was 5.29 µM. To `Cc1nc2ccc(Nc3nc4cc(S(=O)(=O)N5CCOCC5)ccc4o3)cc2s1` belongs “inactive”; to `COc1ccc(CCn2c(NN=C(C)C)nc3c2c(=O)[nH]c(=O)n3C)cc1`, 4.82 µM.

Take `Cc1ccc(CNc2ccc(O)cc2)cc1`: the IC50 was 8.8 µM. To `O=c1c2cc([N+](=O)[O-])ccc2sn1-c1ccccc1` belongs 5.27 µM; to `Cc1ccc(C)c(-n2sc3ccc(F)cc3c2=O)c1`, 1.24 µM. With `C=CCN=c1scc(-c2ccco2)n1/N=C/c1ccc(O)c(O)c1O` the entry was “inactive”; with `O=C1/C(=C\c2ccc([N+](=O)[O-])cc2)CS(=O)(=O)C/C1=C/c1ccc([N+](=O)[O-])cc1`, 2.95 µM. To `Cc1nc2ccccn2c1-c1ccnn1S(=O)(=O)c1ccc(F)cc1` belongs 15.2 µM.

In the case of `Cc1ccsc1/C=N\NC(=O)CC(=O)NCc1ccccc1`, the IC50 is 6.41 µM.

On to `Nn1c(SCC(=O)Nc2cccnc2Cl)nnc1-c1ccccc1`, for which the IC50 result is “inactive”.

On to `c1cc2c(cc1NC1CCCCCC1)OCO2`, for which the 50% inhibitory concentration (IC50) was 19.2 µM. With `Cc1cc(C)c(S(=O)(=O)/N=C2/C=C(SCC(=O)O)C(=O)c3ccccc32)cc1C` the figure was 2.41 µM; with `COc1cc(NC(C)CCc2ccccc2)cc(OC)c1OC` (stereo unspecified), 2.02 µM. On to `CCOc1cc(CNc2ccc(N3CCCC3)cc2)cc(Cl)c1OC`, for which the IC50 was 3.87 µM. With `CCN(CC)CCNC(=O)CCCCn1c(=S)[nH]c2c([nH]c3ccc(OC)cc32)c1=O` the entry was “inactive”; with `CC(CNc1ccccc1O)C(=O)O` (stereo unspecified), 6.16 µM; with `CN(C)c1cccc2c1c(NC(=O)c1ccc(F)cc1)nn2C`, 19.2 µM. On to `CCN(CC)c1ccc(NC(=O)c2ccccc2Br)cc1S(=O)(=O)Nc1ccccc1OC`, for which the IC50 result is “inactive”. To `Cc1cccc(OCC(=O)NCC(=O)N/N=C/c2ccccc2)c1` belongs 9.37 µM; to `Cc1ccc(-c2nc(N3CCOCC3)s[n+]2-c2ccccc2)cc1`, 5.65 µM; to `COc1cc(Sc2ccc(C)cc2)c(OC)cc1N`, 7.04 µM. To `Cc1c(Cl)c([N+](=O)[O-])nn1Cc1ccc(C(=O)N/N=C\c2cccc(Br)c2)o1` belongs 9.37 µM; to `CN1C(=O)CSc2ccc(NC(=O)N3CCc4ccccc43)cc21`, 15.2 µM; to `O=S(=O)(Nc1ccc(Cl)cc1)c1ccc(N2CCOCC2)c(NC(=S)NCCN2CCOCC2)c1`, 15.1 µM. To `Cc1ccc(S(=O)(=O)Nc2nc(C)c(C(=O)N/N=C/c3ccccc3)s2)cc1` belongs 4.58 µM; to `Oc1cc(-n2cccn2)c(O)cc1-n1cccn1`, 6.03 µM; to `COC(=O)CCC(=O)Nc1sc(Cc2ccccc2)c(C)c1C(N)=O`, “inactive”. For `CCN1CCCC1CNC(=O)c1ccc2c(c1)NC(=O)/C(=C\c1ccccc1Cl)S2` (stereo unspecified), the IC50 was 3.08 µM.

Regarding `CCN1CCCC1CNC(=O)c1ccc2c(c1)NC(=O)/C(=C\c1ccccc1F)S2` (stereo unspecified), the IC50 was 1.96 µM. With `Cc1ccc(NC(=O)c2cc(N3C(=O)C=CC3=O)ccc2Cl)cc1C` the figure was 14.1 µM; with `N#Cc1c(C#N)c(SSc2c(C#N)c(C#N)c(N)n2-c2ccccc2)n(-c2ccccc2)c1N`, 1.41 µM.

Take `Cc1ccc(N2CC(C(=O)OCC(=O)c3ccc([N+](=O)[O-])cc3)CC2=O)cc1` (stereo unspecified): the IC50 is 8.7 µM. For `Cc1ccc(S(=O)(=O)N(C)C)cc1NC(=O)CSc1nc2ncc(Cl)cc2[nH]1`, the IC50 is 12.1 µM. To `CC1(C)Nc2ccc(O)cc2-c2c1ssc2=S` belongs “inactive”; to `Nc1cc(N)c(OCC(F)(F)F)cc1OCC(F)(F)F`, 1.61 µM; to `CCOc1ccccc1NS(=O)(=O)c1c(C)noc1C`, 9.95 µM. On to `CC(=O)Nc1cc2c(cc1[N+](=O)[O-])-c1ccccc1C2O` (stereo unspecified), for which the IC50 is 20 µM. To `CCCCOc1ccc(Cc2n[nH]c(=S)n2N)cc1` belongs “inactive”. Take `CC1(OC(=O)C2CCCC2)C(=O)C=C2C=C(c3ccsc3)N(CC3CC3)C=C2C1=O` (stereo unspecified): the IC50 was 7.8 µM. `COc1cc(NCc2ccccc2)c2ncn(Cc3ccccc3)c2c1`: the IC50 was > 80 µM (inactive). Regarding `O=C(COc1cccc2ccccc12)Nc1ccc(Cl)cc1C(=O)O`, the IC50 is 13.5 µM. With `Cc1ccccc1-n1sc2cc(F)ccc2c1=O`, the half-inhibitory concentration (IC50) was 2.15 µM. In the case of `Cc1cc(O)c(C(C)C)cc1N=Cc1ccccc1[N+](=O)[O-]`, the IC50 is 3.44 µM. `O=C(COC(=O)c1cnccn1)c1ccc([N+](=O)[O-])cc1`: the IC50 was 12.2 µM. `COc1cc(N)c2ncsc2c1`: the IC50 is 15.5 µM. For `COc1cc(NCc2ccccc2O)c2ncccc2c1`, the IC50 result is “inactive”.

Regarding `O=C(Cn1sc2ccccc2c1=O)Nc1ccc(Cl)cc1`, the IC50 was 3.26 µM. Turning to `O=C(O)c1ccccc1NS(=O)(=O)c1cccc(-n2sc3ccccc3c2=O)c1`, the IC50 is 5.54 µM. With `Nn1c(CSc2nc3ccccc3o2)nnc1CSc1nc2ccccc2o1` the figure was 11.5 µM; with `COc1cc(OC)c(C2CC(=O)N3CN(c4ccccc4)CSC3=C2C#N)cc1OC` (stereo unspecified), 11.5 µM. With `CN1C(=O)C(N=Nc2ccc([N+](=O)[O-])cc2)SC1=S` (stereo unspecified) the figure was 5.43 µM. To `O=[N+]([O-])c1c(NCCO)cc(Sc2nc3ccccc3s2)c2nonc12` belongs 10.2 µM; to `O=C(NCCCN1CCOCC1)c1sc2cc([N+](=O)[O-])ccc2c1Cl`, 6.75 µM; to `COC1=C(OC)C(=O)C(Sc2ccc3ccccc3c2)=CC1=O`, 0.781 µM. With `CCN(CC)C(=O)c1c(C)[nH]c(=S)c(C#N)c1-c1ccco1`, the IC50 entry is “inactive”. With `Cc1ccc(-c2nn(C)c(=O)c3ccccc23)cc1CNC(=O)/C=C/c1ccccc1` the figure was 4.14 µM; with `Cn1c(-c2sccc2OCc2cccc(C(F)(F)F)c2)n[nH]c1=S`, “inactive”; with `COC1=C(Br)C(=O)c2nc(C)ccc2C1=O`, 4.24 µM. With `O=C1NC(=O)C(=Cc2ccc(-c3ccccc3[N+](=O)[O-])o2)C(=O)N1`, the IC50 is 10.9 µM.

As for `Cc1cc(O)c(C(C)C)cc1N=Cc1ccc([N+](=O)[O-])cc1`, the IC50 is 6.99 µM. With `[O-]/[N+](=C\c1ccncc1)c1ccccc1` the figure was 9.54 µM; with `Cc1cc(C)nc(SSc2nc(C)cc(C)n2)n1`, 3.06 µM; with `S=c1ncc2[nH]c(=S)[nH]c2[nH]1`, 4.41 µM.

For the compound `O=C1Nc2cc(C(=O)NCCCN3CCCC3)ccc2S/C1=C/c1cccc(Cl)c1`, the IC50 was 17.9 µM. To `Cc1[nH]c(=S)c(C#N)c(C)c1CCC#N` belongs “inactive”; to `Cc1ccccc1-n1c(-c2ccc3ccccc3n2)n[nH]c1=S`, 14.4 µM.

As to `O=C(CCl)NCCN1C(=O)S/C(=C\c2cccnc2)C1=O`, the IC50 is 9.89 µM.
